Results taken from the supplement of paper PMC10307832.

Legend:
Assay in all cases: relative viability (nuclei count vs DMSO), 5 days (fraction); higher = more cells survive
LK-2 = system: LK-2
Summary of the method: (§1)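 Relative viability was taken as the ratio of nuclei in treated wells to nuclei in vehicle wells. Lung cancer cell lines in 1536-well plates received compounds by pin tool one day after seeding, either one drug alone or a fixed anchor-drug dose plus five library-drug doses (not always all listed) in √10 steps. Nuclei were counted on 4× images after 5 days of treatment, and values are medians of duplicate plates.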

NCI-H2405 = system: NCI-H2405
Summary of the method: as §1

HOP-62 = system: HOP-62
Summary of the method: as §1

SK-MES-1 = system: SK-MES-1
Summary of the method: as §1

HCC-78 = system: HCC-78
Summary of the method: as §1

BEN = system: BEN
Summary of the method: as §1

NCI-H1993 = system: NCI-H1993
Summary of the method: as §1

HCC-366 = system: HCC-366
Summary of the method: as §1

NCI-H460 = system: NCI-H460
Summary of the method: as §1

COR-L 105 = system: COR-L 105
Summary of the method: as §1

EMC-BAC-2 = system: EMC-BAC-2
Summary of the method: as §1

NCI-H661 = system: NCI-H661
Summary of the method: as §1

NCI-H1563 = system: NCI-H1563
Summary of the method: as §1

NCI-H647 = system: NCI-H647
Summary of the method: as §1

NCI-H1734 = system: NCI-H1734
Summary of the method: as §1

PC-14 = system: PC-14
Summary of the method: as §1

A-427 = system: A-427
Summary of the method: as §1

201T = system: 201T
Summary of the method: as §1

HCC-15 = system: HCC-15
Summary of the method: as §1

NCI-H1915 = system: NCI-H1915
Summary of the method: as §1

COR-L23 = system: COR-L23
Summary of the method: as §1

EKVX = system: EKVX
Summary of the method: as §1

## Nc1cccc2c1CN(C1CCC(=O)NC1=O)C2=O (stereo not given) [Lenalidomide] + CS(=O)(=O)CCNCc1ccc(-c2ccc3ncnc(Nc4ccc(OCc5cccc(F)c5)c(Cl)c4)c3c2)o1 [Lapatinib] (partner 2 µM)
LK-2; first compound 0.253 µM
  relative viability: 0.884
LK-2; first compound 2.53 µM
  relative viability: 0.864
LK-2; first compound 8 µM
  relative viability: 0.709
NCI-H2405; first compound 0.253 µM
  relative viability: 1
NCI-H2405; first compound 0.8 µM
  relative viability: 0.949
NCI-H2405; first compound 2.53 µM
  relative viability: 1.03
NCI-H2405; first compound 8 µM
  relative viability: 0.884
HOP-62; first compound 0.253 µM
  relative viability: 1
HOP-62; first compound 0.8 µM
  relative viability: 0.578
HOP-62; first compound 2.53 µM
  relative viability: 1.26
HOP-62; first compound 8 µM
  relative viability: 0.924
SK-MES-1; first compound 0.253 µM
  relative viability: 0.416
SK-MES-1; first compound 0.8 µM
  relative viability: 0.397
SK-MES-1; first compound 2.53 µM
  relative viability: 0.536
SK-MES-1; first compound 8 µM
  relative viability: 0.391
HCC-78; first compound 0.253 µM
  relative viability: 0.811
HCC-78; first compound 0.8 µM
  relative viability: 0.367
HCC-78; first compound 2.53 µM
  relative viability: 0.245
HCC-78; first compound 8 µM
  relative viability: 0.271
BEN; first compound 0.253 µM
  relative viability: 0.898
BEN; first compound 0.8 µM
  relative viability: 0.587
BEN; first compound 2.53 µM
  relative viability: 0.918
BEN; first compound 8 µM
  relative viability: 0.489
NCI-H1993; first compound 0.253 µM
  relative viability: 0.894
NCI-H1993; first compound 0.8 µM
  relative viability: 0.831
NCI-H1993; first compound 2.53 µM
  relative viability: 0.821
NCI-H1993; first compound 8 µM
  relative viability: 0.722
HCC-366; first compound 0.253 µM
  relative viability: 1.03
HCC-366; first compound 0.8 µM
  relative viability: 1.1
HCC-366; first compound 2.53 µM
  relative viability: 1.03
HCC-366; first compound 8 µM
  relative viability: 1.07
NCI-H460; first compound 0.253 µM
  relative viability: 0.981
NCI-H460; first compound 0.8 µM
  relative viability: 1.14
NCI-H460; first compound 2.53 µM
  relative viability: 1.66
NCI-H460; first compound 8 µM
  relative viability: 1.01
COR-L 105; first compound 0.253 µM
  relative viability: 0.386
COR-L 105; first compound 0.8 µM
  relative viability: 0.364
COR-L 105; first compound 2.53 µM
  relative viability: 0.343
COR-L 105; first compound 8 µM
  relative viability: 0.33
EMC-BAC-2; first compound 0.253 µM
  relative viability: 0.921
EMC-BAC-2; first compound 0.8 µM
  relative viability: 0.825
EMC-BAC-2; first compound 2.53 µM
  relative viability: 0.905
EMC-BAC-2; first compound 8 µM
  relative viability: 0.754
NCI-H661; first compound 0.253 µM
  relative viability: 0.428
NCI-H661; first compound 0.8 µM
  relative viability: 0.501
NCI-H661; first compound 2.53 µM
  relative viability: 0.479
NCI-H661; first compound 8 µM
  relative viability: 0.495
NCI-H1563; first compound 0.253 µM
  relative viability: 0.919
NCI-H1563; first compound 0.8 µM
  relative viability: 0.852
NCI-H1563; first compound 2.53 µM
  relative viability: 0.979
NCI-H1563; first compound 8 µM
  relative viability: 0.763
NCI-H647; first compound 0.253 µM
  relative viability: 0.995
NCI-H647; first compound 0.8 µM
  relative viability: 0.981
NCI-H647; first compound 2.53 µM
  relative viability: 1.46
NCI-H647; first compound 8 µM
  relative viability: 0.88
NCI-H1734; first compound 0.253 µM
  relative viability: 1.09
NCI-H1734; first compound 0.8 µM
  relative viability: 1.1
NCI-H1734; first compound 2.53 µM
  relative viability: 1.18
NCI-H1734; first compound 8 µM
  relative viability: 0.969
PC-14; first compound 0.253 µM
  relative viability: 0.294
PC-14; first compound 0.8 µM
  relative viability: 0.32
PC-14; first compound 2.53 µM
  relative viability: 0.4
PC-14; first compound 8 µM
  relative viability: 0.302
A-427; first compound 0.253 µM
  relative viability: 0.983
A-427; first compound 2.53 µM
  relative viability: 1.1
A-427; first compound 8 µM
  relative viability: 0.975
201T; first compound 0.253 µM
  relative viability: 1.07
201T; first compound 0.8 µM
  relative viability: 0.815
201T; first compound 2.53 µM
  relative viability: 1.02
201T; first compound 8 µM
  relative viability: 0.954
HCC-15; first compound 0.253 µM
  relative viability: 0.902
HCC-15; first compound 2.53 µM
  relative viability: 1.07
HCC-15; first compound 8 µM
  relative viability: 0.841
NCI-H1915; first compound 0.253 µM
  relative viability: 0.979
NCI-H1915; first compound 0.8 µM
  relative viability: 0.807
NCI-H1915; first compound 2.53 µM
  relative viability: 1.11
NCI-H1915; first compound 8 µM
  relative viability: 1.02
COR-L23; first compound 0.253 µM
  relative viability: 1.05
COR-L23; first compound 0.8 µM
  relative viability: 0.935
COR-L23; first compound 2.53 µM
  relative viability: 1.29
COR-L23; first compound 8 µM
  relative viability: 1.2
EKVX; first compound 0.253 µM
  relative viability: 0.208
EKVX; first compound 0.8 µM
  relative viability: 0.173
EKVX; first compound 2.53 µM
  relative viability: 0.189
EKVX; first compound 8 µM
  relative viability: 0.157
